From patent publication US4952560A, “Ointment base” (Takeda Chemical Industries, Ltd., priority 1984, dated 1990)
Counter-ions that a name gives are not always drawn.

System: Pressor reaction (norepinephirine)
Experiment: Pressor reaction inhibiting effect of prazosin hydrochloride-containing preparation (Test Example 2)
Type: in vivo, male SD rats
Conditions: oral, 20 mg/kg once daily, 3 days; 24 h after last dose; norepinephirine 3 μg/kg i.v.; control 48.6 ± 1.2; * significant difference from control (risk factor 5%)
Procedure: (B) A suspension of prazosin hydrochloride in 1% gum arabic suspension was orally administered.
The dosage for both treatment groups was 20 mg/kg once daily and the treatment was carried out for 3 consecutive days. Twenty-four hours after the last dosing, 3 μg/kg of norepinephirine was intravenously administered under pentobarbital sodium anesthesia (dosage 40 mg/kg; intraperitoneal) and the resulting pressor reaction was compared with that in the untreated control group.

For `COc1cc2nc(N3CCN(C(=O)c4ccco4)CC3)nc(N)c2cc1OC` [prazosin hydrochloride], the Pressor reaction was 34.9 ± 2.2 mmHg.
